Assay results: US7786257B2, “Signal-1/signal-2 bifunctional peptide inhibitors” (priority 2000, dated 2010)
“Also recorded” adds a separate entry of the source. Where no end group is shown, it is not given here. [ ]: non-standard residue; d: D form. Ahx = NCCCCCC(=O)O

How the values were obtained:
[1] = test system: MHC-II and ICAM-1 on NOD spleenocytes; test: Inhibition of biotinylated BPI binding to NOD spleenocytes by monoclonal antibodies to MHC-II or ICAM-1; design: species or system mouse; conditions: mAb 10-3.62 or 3E2 at 5 μg/ml
Description: (§1) Specifically, it was verified that the peptide binds to MHC molecules on live APC. Briefly, spleen cell density-gradient fractions (from mice), or PBL, or APC lines (from humans) were incubated in round bottom 96-well plates with increasing concentrations of individual biotinylated peptides at 37° C., 5% CO2 for 16 hours. Following binding of the BPI to the APC, Avidin-FITC was incubated with the cells on ice for 30 minutes, followed by biotinylated anti-Avidin for 1 hour, then again with Avidin-FITC. For BPI titrations, increasing concentrations (0.1-100 μM) of the biotinylated derivatives in sterile 0.5% BSA-PBS were incubated with the APC for 16 hours as above. […] Three-color analyses used Cy-Chrome or PE-conjugated antibodies to known surface markers of APC that were commercially available. Avidin-FITC and biotinylated anti-Avidin detection of the bound peptide was as previously described in Murray et al., 24 Eur. J. Immunol. 2337-2344 (1994); Murray; 19 Immunology Today 157-163; and Schountz et al., 157 The Journal of Immunology 3893-3901 (1996). […]
However, either purified 10-3.62 (anti-MHC-II) or 3E2 (anti-ICAM-1) were included in the overnight incubation of the spleen cells with the biotinylated BPI. […] Analyses were gated on forward/side scatter dotplots for live lymphocytes and 20,000 events were analyzed for each histogram.

[2] = test system: MHC-II and ICAM-1 molecules on the APC surface; test: Co-capping of ICAM-1 with MHC-II on APC from i.v. treated NOD mice (fluorescence microscopy); format: cell-based, mouse; conditions: T-depleted spleenocytes from NOD mice 16 hours after i.v. injection of 40 nanomoles; bio-10-3.62/streptavidin
Description: as §1, with “Immunol.” for “Immunol. 2337-2344 (1994); Murray; 19 Immunology Today 157-163; and Schountz et al., 157 The Journal of Immunology 3893-3901 (1996).”
Further support for simultaneous binding of the BPI to MHC-II and ICAM-1 molecules has been observed in co-capping experiments using biotinylated mAb 10-3.62 and streptavidin to cap MHC-II in the presence or absence of the BPI. […] The cells are plated and observed for evidence that a given BPI links ICAM-1 into the MHC-II cap, i.e., by standard fluorescence microscopy and image analysis.

## GAD65(208-217)-[Ac-G-Ac-G-Ac]-CD11a (237-247) (EIAPVFVLLE[Ahx]G[Ahx]G[Ahx]ITDGEATDSG) [EGAD-BPI]
[1]
  BPI binding in presence of monoclonal antibody to MHC-II or ICAM-1: effectively block binding
[1]; listed as BPI
  BPI binding in presence of monoclonal antibody to MHC-II or ICAM-1: blocked BPI binding
[2]
  co-capping of ICAM-1 with MHC-II: exhibited co-capping of ICAM-1 with MUC-II; also recorded: ICAM-1 was co-capped with MHC-II
